# Experimental data from PubChem BioAssay (NCI).
# “And” between values parts separate entries of the source, which are not always exact repeats. Identical values can stand only once.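 1) Cells in 96-well plates. 2) Compound, 48 h, 5 concentrations. 3) Linear interpolation between surrounding doses. 4) Unreached endpoint = highest concentration. At the GI50, growth is halved. TGI: total growth inhibition.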 Square brackets hold non-standard residues; d marks the D form. Peptide text beside a SMILES is read from it. Phe(4-NO2) = N[CH](Cc1ccc([N+](=O)[O-])cc1)C(=O)O
# Assays:
# Test in all cases: DTP human tumour cell line panel, 48 h
# A498 renal = tested on: A498 renal
# NCI-H226 lung = tested on: NCI-H226 lung
# MDA-N = tested on: MDA-N
# MDA-MB-435 = tested on: MDA-MB-435
# UACC-257 melanoma = tested on: UACC-257 melanoma
# KM12 colon = tested on: KM12 colon
# SNB-19 CNS = tested on: SNB-19 CNS
# MALME-3M melanoma = tested on: MALME-3M melanoma
# HL-60(TB) leukemia = tested on: HL-60(TB) leukemia
# CAKI-1 renal = tested on: CAKI-1 renal
# BT-549 breast = tested on: BT-549 breast
# HCC-2998 colon = tested on: HCC-2998 colon
SMILES,TGI (A498 renal) [µM],TGI (NCI-H226 lung) [µM],TGI (MDA-N) [µM],TGI (MDA-MB-435) [µM],TGI (UACC-257 melanoma) [µM],TGI (KM12 colon) [µM],TGI (SNB-19 CNS) [µM],TGI (MALME-3M melanoma) [µM],TGI (HL-60(TB) leukemia) [µM],TGI (CAKI-1 renal) [µM],TGI (BT-549 breast),TGI (HCC-2998 colon) [µM],GI50 (CAKI-1 renal),GI50 (BT-549 breast)
CCOC(OCC)[C@H](N)[C@@H](O)[C@@H](O)[C@H]1COC(C)(C)O1,> 100,> 100,> 100,> 100,> 100,> 100,> 100,> 100,,,,,,
C=C(C1=CC(=O)C(C)(C)O1)[C@@H]1CC=C([C@@H]2CC[C@H]3[C@@]2(C)CC[C@H]2C(C)(C)C(=O)[C@H](OC(=O)CC(C)(O)CC(=O)O)C[C@]32C)[C@H](O)O1 (some centres not stated),26,31.3,30.5,34.2,35.6,29.7,> 75,28,38.4,45.8,13.4 µM,,,
Cc1cc(=O)n2nc(CSc3n[nH]c(=S)s3)sc2n1,,> 100,> 100,> 100,> 100,> 100,> 100,> 100,> 100,> 100,> 100 µM,> 100,,
CC1(C)CN=C(Nc2ccc(F)c(Cl)c2)S1,,> 100,> 100,> 100,> 100,> 100,> 100,> 100,> 100,> 100,> 100 µM,> 100,,
COC(=O)CCC(NC(=O)C(CCC(=O)OC)NC(=O)C(CCC(=O)OC)NC(=O)C(CCC(=O)OC)NC(=O)C(CCC(=O)OC)NC(=O)C(Cc1ccc([N+](=O)[O-])cc1)NC(=O)C(CCC(=O)OC)NC(=O)C(CCC(=O)OC)NC(=O)C(CCC(=O)OC)NC(=O)C(CCC(=O)OC)NC(=O)C(CCC(=O)OC)NC(C)=O)C(N)=O (configuration not stated) (Ac-E(OMe)E(OMe)E(OMe)E(OMe)E(OMe)[Phe(4-NO2)]E(OMe)E(OMe)E(OMe)E(OMe)E(OMe)-NH2; configuration not given here),,,> 100,> 100,> 100,> 100,> 100,> 100,,> 100,,,,
COc1ccc(OCC(C)(C)O)cc1,> 100,> 100,,,> 100,> 100,> 100,> 100,> 100,> 100,,> 100,,
C/C(=N\Nc1nc2ccccc2o1)c1cc2ccccc2cn1,> 100,,35.3,> 43.4,,7.85,20.5,5.51,,11.1,3.23 µM,,,
CC(c1ccccc1)C(O)S(=O)(=O)O (configuration not stated),> 100,> 100,,,> 100,> 100,> 100,> 100,,,,,,
CN(C(=O)c1ccc(Cl)cc1)C(=S)N1CCN(c2ccccc2)CC1,,> 100,> 100,> 100,> 100,> 100,> 100,> 100,> 100,,> 100 µM,> 100,,
O=c1oc2ccccc2n1CCCn1c(=O)oc2ccccc21,> 100,> 100,,> 100,> 100,> 100,> 100,> 100,> 100,> 100,> 100 µM,,,
CCNC1=C(NC(=O)CCl)C(=O)c2ccccc2C1=O,,48.2,29.2,36.4,> 10,32,54.5,34.9,88.9,,> 10 µM,> 10,,
CSS(C)(=O)=O,> 100,43.5,,44.3,45.8,87.1,> 100,48.4,58.7,43.2,,71.2,,
ClCCc1ccccc1CC1=NCCc2ccccc21,> 100,> 100,,> 100,> 100,> 100,> 100,,> 100,92.4,97.9 µM,62.5,,
CC1=CC(=O)/C(=C/N2C(=O)CNC2=S)C(=O)O1,,> 100,> 100,> 100,> 100,> 100,> 100,,> 100,> 100,,> 100,,
CCOc1cc(/C=C2\N=C(c3ccccc3)N(c3nc4ccccc4s3)C2=O)ccc1O,> 100,> 100,> 100,> 100,> 100,> 100,,,73.9,> 100,,97.3,,
C=CCN(c1cc(OC)c2c(c1[N+](=O)[O-])C(C)(SC)C(=O)N2)S(C)(=O)=O (configuration not stated),> 100,> 100,> 100,> 100,> 100,> 100,> 100,> 100,,> 100,> 100 µM,> 100,,
O=C(Nc1nccs1)NS(=O)(=O)n1cnc2ccccc21,> 100,> 100,,> 100,> 100,> 100,> 100,> 100,> 100,> 100,> 100 µM,> 100,,
COc1cc(C2SCC(=O)N2NC(=O)c2ccc(NC(C)=O)cc2OC)ccc1O (configuration not stated),> 100,,> 100,> 100,,,> 100,> 100,> 100,> 100,> 100 µM,,,
Cc1c(C#N)c(N)n(C2OC(CO)C(O)C(O)C2O)c(=S)c1C#N (configuration not stated),> 100,> 100,> 100,,> 100,> 100,> 100,> 100,> 100,> 100,68.6 µM and > 100 µM,> 100,24.4 µM and > 100 µM,18.5 µM and > 100 µM
COc1ccc2c(c1)C=C(C(C)(C)C)NS2(=O)=O,> 100,> 100,,,> 100,> 100,> 100,> 100,> 100,> 100,,> 100,,
Cc1nn(C(=O)c2ccncc2)c2c1C(c1ccc([N+](=O)[O-])cc1)SC(N)=N2 (configuration not stated),> 100,> 100,> 100,> 100,> 100,> 100,> 100,> 100,> 100,,> 100 µM,,,

SMILES,TGI (A498 renal) [µM],TGI (NCI-H226 lung) [µM],TGI (MDA-N) [µM],TGI (MDA-MB-435) [µM],TGI (UACC-257 melanoma) [µM],TGI (KM12 colon) [µM],TGI (SNB-19 CNS) [µM],TGI (MALME-3M melanoma) [µM],TGI (HL-60(TB) leukemia) [µM],TGI (CAKI-1 renal) [µM],TGI (BT-549 breast),TGI (HCC-2998 colon) [µM],GI50 (CAKI-1 renal),GI50 (BT-549 breast)
C(#C[C@@]12CCC[C@@H]1N(Cc1ccccc1)CO2)c1ccc2c(c1)OCO2,> 100,> 100,> 100,> 100,> 100,> 100,> 100,> 100,,> 100,> 100 µM,> 100,,
O=C1c2cc([N+](=O)[O-])sc2C(=O)c2cc([N+](=O)[O-])sc21,32.7,26.3,4.72,4.73,11.8,14.8,8.9,2.38,,8.81,3.95 µM,8.56,,
C=C(C)C1CC2=C(O1)C(=O)c1cccc(O)c1C2=O (configuration not stated),10.2,3.46,0.132,0.271,1.01,3.27,3.11,2.31,,2.08,1.63 µM,3.97,,
CC1(C)/C(=N\Nc2ccc([N+](=O)[O-])cc2[N+](=O)[O-])C2CCC1C2 (configuration not stated),,> 100,> 100,> 100,> 100,> 100,> 100,> 100,> 100,> 100,> 100 µM,,,
CC(C)(C)C(=O)CC(=O)C(F)(F)C(F)(F)C(F)(F)F.[Ag],,60.2,29,33.5,30.1,50.8,43.9,45.4,40.8,27.8,,,,
O=C1/C(=C\c2cccc(Oc3ccccc3)c2)SC(c2ccccc2)N1c1cccc(Cl)c1 (configuration not stated),> 100,> 100,> 100,> 100,> 100,> 100,> 100,> 100,,> 100,> 100 µM,> 100,,
COc1ccc(NC(=O)CC(=O)N2N=C(C)C(N=Nc3ccc(C(=O)O)cc3)C2=O)cc1 (configuration not stated),> 100,,> 100,> 100,> 100,> 100,> 100,> 100,> 100,> 100,,> 100,,
O=C(NNC(=O)c1c(Cl)c(Cl)c(Cl)c(Cl)c1-c1nc2ccccc2[nH]1)c1ccc(Cl)cc1,> 100,> 100,53.4,69.8,,> 100,> 100,> 100,> 100,> 100,> 100 µM,,,
CCCCN1CCC(O)(c2cc(C(=O)O)[nH]c2-c2cc(C)no2)C1=O (configuration not stated),> 100,,> 100,> 100,> 100,> 100,> 100,> 100,,> 100,> 100 µM,> 100,,
COc1ccc(NS(=O)(=O)c2ccc(N=C3C=C(Nc4ccc(S(=O)(=O)Nc5ccc(OC)nn5)cc4)C(=O)c4ccccc43)cc2)nn1,29,34.2,,,35.8,30.5,33.4,33.1,> 100,40.7,,34.1,,
CCCCCCC(=O)c1ccc2ccccc2c1O,> 100,> 100,,> 100,> 100,> 100,> 100,,> 100,95.4,> 100 µM,> 100,,
CS(=O)(=O)CCC(N)P(=O)(O)O (configuration not stated),,> 100,> 100,> 100,> 100,> 100,> 100,> 100,> 100,> 100,> 100 µM,,,
C[C@H](CO)C1=CC(C#C[Si](C)(C)C)N(C(=O)Oc2ccccc2)c2ccccc21 (some centres not stated),,34.6,13.3,7.25,28.3,21.8,29.8,,47.2,28.7,,30.6,,
Cn1c(O)c(C=Nc2ccc(Cl)cc2Cl)c(=O)n(C)c1=O,> 100,> 100,,> 100,> 100,> 100,> 100,> 100,,> 100,> 100 µM,> 100,,
CCCCC(N)CSSCC(N)CCCC (configuration not stated),57.4,43.6,,,44.9,> 100,> 100,32.6,40.1,,,35.4,,
Clc1nc(Nc2nc3ccccc3[nH]2)nc(Cl)c1-c1ccccc1,60.6,46.4,23.7,> 100,80.2,> 100,> 100,38.6,> 100,> 100,42.5 µM,,,
Cc1ccc2c(=O)c(C(=O)NNC(=S)NC3CCCCC3)c[nH]c2n1,> 100,> 100,> 100,89,> 100,> 100,> 100,> 100,> 100,> 100,> 100 µM,,,
NS(=O)(=O)c1ccc(N2C(=O)C(=O)N(c3ccccc3)C2=S)cc1,> 100,> 100,> 100,> 100,> 100,> 100,> 100,> 100,> 100,> 100,,> 100,,
N[C@@H](Cc1ccc2oc3cc(=O)c4ccccc4c-3nc2c1)C(=O)O,> 100,> 100,38.2,31.7,42.3,> 100,77.6,11.2,> 100,> 100,,,,
COc1cc2c3c(c1OC)C(=O)C(=O)C1=C3N(CCC1)CC2,92.6,,,53.8,67,44.5,> 100,,70.4,> 100,72.6 µM,> 100,,
